Measurements as given in the supplement of paper PMC10307832.

Legend:
Assay in all cases: relative viability (nuclei count vs DMSO), 5 days (fraction); higher = more cells survive
Palbociclib + Bortezomib = compound: CC(=O)c1c(C)c2cnc(Nc3ccc(N4CCNCC4)cn3)nc2n(C2CCCC2)c1=O [Palbociclib] + CC(C)C[C@H](NC(=O)[C@H](Cc1ccccc1)NC(=O)c1cnccn1)B(O)O [Bortezomib] (partner 0.002 µM)
Summary of the method: (§1)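 Lung cancer cell lines, seeded in 1536-well plates, were treated the following day by pin tool with a single drug or with five library-drug doses (not always all listed) in √10 steps on top of a fixed anchor-drug dose. Cells were fixed and nuclei stained in one step after 5 days, and nuclei were counted. Relative viability is the nuclei count for treated wells divided by that for vehicle wells, reported as medians of duplicate plates.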

Palbociclib + Navitoclax = compound: CC(=O)c1c(C)c2cnc(Nc3ccc(N4CCNCC4)cn3)nc2n(C2CCCC2)c1=O [Palbociclib] + CC1(C)CCC(c2ccc(Cl)cc2)=C(CN2CCN(c3ccc(C(=O)NS(=O)(=O)c4ccc(N[C@H](CCN5CCOCC5)CSc5ccccc5)c(S(=O)(=O)C(F)(F)F)c4)cc3)CC2)C1 [Navitoclax] (partner 0.5 µM)
Summary of the method: as §1

Palbociclib + Linsitinib = compound: CC(=O)c1c(C)c2cnc(Nc3ccc(N4CCNCC4)cn3)nc2n(C2CCCC2)c1=O [Palbociclib] + C[C@]1(O)C[C@@H](c2nc(-c3ccc4ccc(-c5ccccc5)nc4c3)c3c(N)nccn32)C1 [Linsitinib] (partner 1 µM)
Summary of the method: as §1

Palbociclib + AZD7762 = compound: CC(=O)c1c(C)c2cnc(Nc3ccc(N4CCNCC4)cn3)nc2n(C2CCCC2)c1=O [Palbociclib] + NC(=O)Nc1cc(-c2cccc(F)c2)sc1C(=O)N[C@H]1CCCNC1 [AZD7762] (partner 0.2 µM)
Summary of the method: as §1

Cell Line | relative viability (Palbociclib + Bortezomib; first compound 0.01 µM) | relative viability (Palbociclib + Bortezomib; first compound 0.3162 µM) | relative viability (Palbociclib + Bortezomib; first compound 1 µM) | relative viability (Palbociclib + Navitoclax; first compound 0.01 µM) | relative viability (Palbociclib + Navitoclax; first compound 0.03162 µM) | relative viability (Palbociclib + Navitoclax; first compound 0.1 µM) | relative viability (Palbociclib + Navitoclax; first compound 0.3162 µM) | relative viability (Palbociclib + Navitoclax; first compound 1 µM) | relative viability (Palbociclib + Linsitinib; first compound 0.01 µM) | relative viability (Palbociclib + Linsitinib; first compound 0.03162 µM) | relative viability (Palbociclib + Linsitinib; first compound 0.1 µM) | relative viability (Palbociclib + Linsitinib; first compound 0.3162 µM) | relative viability (Palbociclib + Linsitinib; first compound 1 µM) | relative viability (Palbociclib + AZD7762; first compound 0.01 µM) | relative viability (Palbociclib + AZD7762; first compound 0.03162 µM) | relative viability (Palbociclib + AZD7762; first compound 0.1 µM) | relative viability (Palbociclib + AZD7762; first compound 0.3162 µM) | relative viability (Palbociclib + AZD7762; first compound 1 µM) | relative viability (Palbociclib + Bortezomib; first compound 0.03162 µM) | relative viability (Palbociclib + Bortezomib; first compound 0.1 µM)
CAL-12T | 1.04 | 0.674 | 0.405 | 1.23 | 1.01 | 0.896 | 0.848 | 0.767 | 0.9 | 0.699 | 0.768 | 0.679 | 0.56 | 0.646 | 0.569 | 0.516 | 0.51 | 0.409 |  | 
NCI-H1755 | 0.977 | 0.733 | 0.483 | 1.03 | 0.974 | 0.876 | 0.818 | 0.715 | 1.01 | 0.987 | 0.873 | 0.814 | 0.711 | 0.476 | 0.402 | 0.436 | 0.451 | 0.421 | 0.761 | 0.803
